Experiment: Lewis acid (ZnBr2) hydrolysis rates of triarylmethyl groups attached to the 5'-hydroxyl of deoxynucleosides
Format: physicochemical
Settings: 0.08 M ZnBr2 in nitromethane; tlc, HCl vapors
Protocol: These compounds are listed in Tables IV and V. The 5'-triarylmethyldeoxynucleosides were treated with protic and Lewis acids using carefully controlled conditions. […] The rates are more variable -with protic acids.
The Lewis Acid Hydrolysis Rates of Triarylmethyl Groups
^1 Reaction conditions were 0.08 M ZnBr2 in nitromethane.
Aliquots were removed from the reaction solution, quenched with ammonium
acetate and analyzed visually after tlc and exposure to HCl vapors. Time

Row | t1/2 in ZnBr2 | Structure (SMILES)
1 | 20 s | COc1ccccc1C(OC[C@H]1O[C@@H](n2cnc3c(=O)[nH]c(NC(=O)C(C)C)nc32)C[C@@H]1O)(c1ccccc1)c1ccccc1OC [R1 = R2 = b; R3 = a; G]
2 | 30 s | COc1ccccc1C(OC[C@H]1O[C@@H](n2ccc(NC(=O)c3ccccc3)nc2=O)C[C@@H]1O)(c1ccccc1OC)c1cccc2ccccc12 [R1 = R2 = b; R3 = n; C]
3 | 30 s | COc1ccccc1C(OC[C@H]1O[C@@H](n2cc(C)c(=O)[nH]c2=O)C[C@@H]1O)(c1ccccc1OC)c1cccc2ccccc12 [R1 = R2 = b; R3 = n; T]
4 | 45 s | COc1ccc(C(OC[C@H]2O[C@@H](n3ccc(NC(=O)c4ccccc4)nc3=O)C[C@@H]2O)(c2ccccc2)c2ccc(OC)cc2)cc1 [R1 = R2 = c; R3 = a; C]

The next lines start with the molecule.

Row | Structure (SMILES) | t1/2 in ZnBr2
5 | Cc1cn([C@H]2C[C@H](O)[C@@H](COC(c3ccccc3)(c3ccc(F)cc3)c3cccc4ccccc34)O2)c(=O)[nH]c1=O (stereo partly shown) [R1 = n; R2 = e; R3 = a; T] | 60 s
6 | COc1ccc(C(OC[C@H]2O[C@@H](n3cnc4c(NC(=O)c5ccccc5)ncnc43)C[C@@H]2O)(c2ccccc2)c2ccc(OC)cc2)cc1 [R1 = R2 = c; R3 = a; A] | 20 s
7 | COc1ccc(C(OC[C@H]2O[C@@H](n3cnc4c(=O)[nH]c(NC(=O)C(C)C)nc43)C[C@@H]2O)(c2ccccc2)c2ccc(OC)cc2)cc1 [R1 = R2 = c; R3 = a; G] | 20 s
8 | COc1ccc(C(OC[C@H]2O[C@@H](n3cc(C)c(=O)[nH]c3=O)C[C@@H]2O)(c2ccccc2)c2ccc(OC)cc2)cc1 [R1 = R2 = c; R3 = a; T] | 60 s
9 | COc1ccc(C(OC[C@H]2O[C@@H](n3cc(C)c(=O)[nH]c3=O)C[C@@H]2O)(c2ccccc2)c2cccc3ccccc23)cc1 (stereo partly shown) [R1 = n; R2 = c; R3 = a; T] | 60 s
10 | Cc1ccc(C(OC[C@H]2O[C@@H](n3cnc4c(NC(=O)c5ccccc5)ncnc43)C[C@@H]2O)(c2ccccc2)c2ccccc2)cc1 [R1 = h; R2 = R3 = a; A] | 45 s
